# In patent US20260125357A1, “LACTATE ENHANCING COMPOUNDS AND USES THEREOF” (GLIAPHARM SA, priority 2022, published 2026):
# What was measured:
# Format in all cases: in vivo, mouse
# [1] = system: GLUT1-DS transgenic mice; assay: Lactate and glucose biosensors in GLUT1-DS transgenic mice; conditions: oral 10 mg/kg, vs vehicle
# Source text: (§1) Heterozygous transgenic mice on 129/SvJ genetic background in which glucose transporter 1 (GLUT1) has been knocked down were used (GLUT1(+/−)) (Wang et al., 2016, Human Molecular Genetics, 15(7)). GLUT1-deficiency syndrome (GLUT1-DS) is a prototypic hypometabolic diseases caused by the mutation of GLUT1 and decreased levels of glucose and lactate in the brain (Tang et al., 2019, Annals of Clinical and Translational Neurology 6(9)). Mating colonies were composed of wild-type female mice and GLUT1-DS male mice, or GLUT1-DS female mice and wild-type male mice. F1 pups were genotyped after ear punching at weaning using PCR to determine genotype. Mice of 2 to 3 months of age were used.
# Cerebral extracellular levels of lactate and glucose were monitored in vivo in GLUT1-DS transgenic male mice and wild-type (WT) male littermates using lactate and glucose biosensors (Pinnacle Technology), according to the manufacturer's instructions. […] After surgery, mice were monitored closely and received analgesic treatment for at least 4 days. After mice had fully recovered from surgery, compounds of the invention or vehicle were administered per os as previously described and cerebral levels of extracellular lactate or glucose were dynamically recorded for 6 hours using lactate or glucose biosensors, respectively. […]
# [2] = system: Wild-type (WT) and GLUT1-DS transgenic mice; assay: Grip strength test in WT and GLUT1-DS transgenic mice; conditions: 10 mg/kg, after rotarod session
# Source text: as §1
# Motor strength was measured on the grip strength test (Bioseb) after rotarod session. Wild-type (WT) and GLUT1-DS transgenic mice were placed with 4 paws on the grid and maximal grip strength was recorded over 2 sessions with 5 minutes apart. Maximal grip strength over the 2 sessions was recorded.
# [3] = system: old C57Bl/6J wild-type mice; assay: Morris Water Maze memory in old (16-month-old) wild-type mice; conditions: 1 day after training
# Procedure: Adult male C57Bl/6J wild-type from 3 month of age (young adults) to 16 month of age (old adults) are used (Charles River). Animals are housed in groups of 3-5 in polypropylene cages (30×40×15 cm) with wire mesh top in a temperature (22±2° C.) and humidity (55±15%) controlled environment on a 12-hour light cycle (07.00-19.00 h lights on). The samples (Vehicle or compounds of the invention) are administered per os (gavage) in a solution made of water supplemented with 0.4% hydroxypropyl methylcellulose (HPMC) Methocel 4 KM (w/v) and 0.25% Tween-20 (v/v), as previously described (Thackaberry et al., 2010, Toxicol Sci., 117(2):485-92). Memory of young adults treated with Vehicle or Old adults treated with Vehicle or compound (1) at 10 mg/kg or 30 mg/kg is tested in the Morris Water Maze, as described below. Treatment is administered at each day of training, 30 minutes before the first training session. No treatment is administered during memory retention test.
# Morris Water Maze (MWM), a well-established spatial and contextual memory test, will be used. […] A number of parameters including the latency to find the platform, time spent around the platform, path efficiency, % time spent in each quadrant is recorded, using automated tracking software (Ethovision). The type of exploration (direct, random, scan of the area) is also recorded. […]
compound,measurement,setting,value
"COc1cc2ccnc(Nc3ccc(S(C)(=O)=O)cc3)c2cc1OC [Compound 2, 6,7-dimethoxy-N-(4-methylsulfonylphenyl)isoquinolin-1-amine]",extracellular glucose levels in the brain,[1],significantly increases
same,extracellular lactate levels in the brain,[1],significantly increases extracellular lactate
same,muscle strength (grip strength),[2],did not lead to any difference on muscle strength
same,memory in the Morris Water Maze,[3]; 10 mg/kg per os,significant increase of memory
same,memory in the Morris Water Maze,[3]; 30 mg/kg per os,significant increase of memory
